# According to PubChem BioAssay (NCI):
#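 Tested at 5 concentrations; 48 h exposure; 96-well plates; endpoints linearly interpolated, else capped at highest concentration. GI50 is the concentration that inhibits growth by half. TGI denotes the concentration required for complete inhibition of growth.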
# Legend:
# Assay in all cases: inhibition of tumour cell growth, NCI panel, 48 h
# SN12C renal = test system: SN12C renal
# OVCAR-8 ovarian = test system: OVCAR-8 ovarian
# HCC-2998 colon = test system: HCC-2998 colon
# U251 CNS = test system: U251 CNS
# KM12 colon = test system: KM12 colon
# HCT-15 colon = test system: HCT-15 colon
# SF-295 CNS = test system: SF-295 CNS
# NCI-H226 lung = test system: NCI-H226 lung
# SF-268 CNS = test system: SF-268 CNS
# ACHN renal = test system: ACHN renal
Structure (SMILES),TGI (SN12C renal),TGI (OVCAR-8 ovarian),TGI (HCC-2998 colon) [µM],TGI (U251 CNS),TGI (KM12 colon),TGI (HCT-15 colon),TGI (SF-295 CNS),TGI (NCI-H226 lung),TGI (SF-268 CNS),TGI (ACHN renal),GI50 (SN12C renal),GI50 (OVCAR-8 ovarian),GI50 (HCC-2998 colon) [µM],GI50 (U251 CNS),GI50 (KM12 colon),GI50 (HCT-15 colon),GI50 (SF-295 CNS),GI50 (NCI-H226 lung),GI50 (SF-268 CNS),GI50 (ACHN renal)
O=C(O)CNS(=O)(=O)c1ccc(NC(=O)c2cccc([N+](=O)[O-])c2)cc1,> 100 µM,> 100 µM,> 100,> 100 µM,> 100 µM,> 100 µM,> 100 µM,> 100 µM,> 100 µM,> 100 µM,,,,,,,,,,
O=C(N/N=C\c1cc(Cl)ccc1O)N/N=C/c1cc(Cl)ccc1O,> 100 µM,> 100 µM,> 100,> 100 µM,> 100 µM,> 100 µM,> 100 µM,> 100 µM,> 100 µM,> 100 µM,> 100 µM,1.77 µM,3.34,0.997 µM,13.1 µM,0.676 µM,2.37 µM,> 100 µM,9.74 µM,1.17 µM
CN(C)c1ccc(/C=N/Nc2ccc(-c3nc4ccccc4[nH]3)cc2)cc1,> 50 µM,32.4 µM,,21.5 µM,> 50 µM,35.7 µM,> 50 µM,,39.8 µM,41.7 µM,> 50 µM,9.79 µM,,6.3 µM,9.81 µM,6.73 µM,3.19 µM,,7.36 µM,8.76 µM
Cc1ccc(C)c2sc3cc(=O)ccc-3nc12,> 100 µM,> 100 µM,> 100,> 100 µM,> 100 µM,> 100 µM,> 100 µM,> 100 µM,> 100 µM,> 100 µM,,,,,,,,,,
CC(=O)OCC1OC(O[C@@H]2C[C@H]3C(C)(C)[C@H](OC(C)=O)CC[C@]3(C)[C@H]3CC[C@@H]4[C@]5(CC[C@@]4(C)[C@@]32C)O[C@@H]([C@H](O)C(C)(C)O)C[C@@H]5C)C(O)C(O)C1O (some centres not stated),24 µM,23.7 µM,15.9,19.1 µM,7.68 µM,5.94 µM,19.2 µM,28.2 µM,23.7 µM,21.3 µM,11.1 µM,9.35 µM,3.64,,2 µM,2.19 µM,6.43 µM,10.7 µM,9.34 µM,9.23 µM
COS(=O)CCOC(=O)c1ccccc1SSc1ccccc1C(=O)OCCS(=O)OC (configuration not stated),85.9 µM,81.2 µM,,> 100 µM,> 100 µM,85.9 µM,> 100 µM,,> 100 µM,> 100 µM,,,,,,,,,,
ClCc1ccc(Cn2cnc3ncnc(Cl)c32)cc1,14.9 µM,11 µM,2.87,2.29 µM,3.48 µM,,5.07 µM,12 µM,3.43 µM,,3.61 µM,3.14 µM,1.42,1.09 µM,1.66 µM,,2.06 µM,2.99 µM,1.64 µM,
CC(C)c1cc2c(O)c(c1)Cc1cc(C(C)C)cc(c1O)Cc1cc(C(C)C)cc(c1O)Cc1cc(C(C)C)cc(c1O)Cc1cc(C(C)C)cc(c1O)Cc1cc(C(C)C)cc(c1O)C2,> 100 µM,> 100 µM,> 100,> 100 µM,> 100 µM,> 100 µM,> 100 µM,,> 100 µM,> 100 µM,,,,,,,,,,
COc1cc(C(=O)c2c(-c3ccccc3)oc3ccccc23)cc(OC)c1O,26.3 µM,83.9 µM,20.4,16.1 µM,16.5 µM,15.5 µM,6.94 µM,37.2 µM,18.6 µM,41.1 µM,5.23 µM,4.8 µM,5.2,3.21 µM,3.99 µM,0.667 µM,2.41 µM,8.14 µM,3.4 µM,4.49 µM
COc1ccc2c3c([nH]c2c1)[C@H]1C[C@H]2[C@H](C[C@@H](O)[C@H](OC)[C@H]2C(=O)O)CN1CC3,> 100 µM,> 100 µM,> 100,> 100 µM,> 100 µM,> 100 µM,> 100 µM,> 100 µM,> 100 µM,> 100 µM,,,,,,,,,,
O=C1C=Cc2noc3cccc1c23,27.3 µM,8.13 µM,28.6,26.4 µM,19.1 µM,10.8 µM,32.8 µM,35.1 µM,12.4 µM,7.85 µM,,,,,,,,,,
Cc1nc(Nc2ccc([N+](=O)[O-])cc2)sc1C(=O)/C=C/c1ccc(N(C)C)cc1,> 100 µM,> 100 µM,> 100,> 100 µM,> 100 µM,> 100 µM,> 100 µM,,> 100 µM,> 100 µM,,,,,,,,,,
CC1=CC(=O)c2[nH]c3ccccc3c2C1=O,8.17 µM,7.45 µM,24,> 25 µM,9.01 µM,7.61 µM,7.93 µM,22.7 µM,7.89 µM,7.54 µM,4.59 µM,,7.01,15.4 µM,4.4 µM,4.2 µM,4.32 µM,6.54 µM,4.36 µM,4.14 µM
CC(C)(C)c1ccc(C(O)(c2ccc(C(C)(C)C)cc2)c2ccc(C(C)(C)C)cc2)cc1,> 100 µM,> 100 µM,> 100,> 100 µM,> 100 µM,> 100 µM,> 100 µM,> 100 µM,> 100 µM,> 100 µM,,,,,,,,,,
NC(=O)c1ccc(NC(=O)c2oc3ccccc3c2-c2cnn(-c3ccccc3)c2)cc1,> 100 µM,> 100 µM,> 100,> 100 µM,> 100 µM,,> 100 µM,> 100 µM,> 100 µM,> 100 µM,> 100 µM,> 100 µM,> 100,5.42 µM,> 100 µM,,> 35.5 µM,2.98 µM,5.79 µM,5.03 µM
Clc1cccc(C2SCc3nc4ccccc4n32)c1Cl (configuration not stated),32.5 µM,37 µM,,31.7 µM,,36.5 µM,30.4 µM,,36.5 µM,35.3 µM,,,,,,,,,,
C/C(=N\N=C(N)N)c1sc(-c2nc(C)c(/C(C)=N/N=C(N)N)s2)nc1C,> 100 µM,> 100 µM,> 100,> 100 µM,> 100 µM,> 66.9 µM,> 100 µM,> 100 µM,> 100 µM,> 100 µM,,,,,,,,,,
CC1=C[C@H]2C[C@@]3(C)O[C@@H]([C@]4(C)CC[C@H]([C@@H](C)C(=O)O)OO4)CC3C(C)(C)[C@H]2CC1 (some centres not stated),2.79 µM,3.54 µM,2.28,3.01 µM,1.65 µM,,3.44 µM,3.82 µM,4.2 µM,3.05 µM,,,,,,,,,,

Structure (SMILES),TGI (SN12C renal),TGI (OVCAR-8 ovarian),TGI (HCC-2998 colon) [µM],TGI (U251 CNS),TGI (KM12 colon),TGI (HCT-15 colon),TGI (SF-295 CNS),TGI (NCI-H226 lung),TGI (SF-268 CNS),TGI (ACHN renal),GI50 (SN12C renal),GI50 (OVCAR-8 ovarian),GI50 (HCC-2998 colon) [µM],GI50 (U251 CNS),GI50 (KM12 colon),GI50 (HCT-15 colon),GI50 (SF-295 CNS),GI50 (NCI-H226 lung),GI50 (SF-268 CNS),GI50 (ACHN renal)
O=C(O)c1oc2ccc([N+](=O)[O-])c3c2c1CCC3,> 100 µM,> 100 µM,> 100,> 100 µM,> 100 µM,,> 100 µM,> 100 µM,> 100 µM,> 100 µM,,,,,,,,,,
NC(=O)Cn1c(=O)[nH]c(=O)c2[nH]cnc21,> 100 µM,> 100 µM,> 100,> 100 µM,> 100 µM,> 100 µM,,> 100 µM,> 100 µM,> 100 µM,,,,,,,,,,
Clc1ccc(CCN2CCOCC2)c(Cl)c1,> 100 µM,> 100 µM,> 100,> 100 µM,> 100 µM,> 100 µM,> 100 µM,,> 100 µM,> 100 µM,,,,,,,,,,
O=C1CCC(c2ccccc2)(c2ccccc2)CC1,> 100 µM,> 100 µM,,> 100 µM,> 100 µM,> 100 µM,> 100 µM,> 100 µM,> 100 µM,> 100 µM,,,,,,,,,,
OCC(O)C(OC1OC(CO)C(O)C(O)C1O)c1nn(-c2ccc(F)cc2)c2nc3cc(Cl)c(Cl)cc3cc12 (configuration not stated),> 100 µM,> 100 µM,> 100,> 100 µM,> 100 µM,> 100 µM,> 100 µM,,> 100 µM,> 100 µM,,,,,,,,,,
C(=C1/CCCCC([n+]2ccccc2)=N1)/c1ccccc1,> 100 µM,> 100 µM,> 100,> 100 µM,,> 100 µM,> 100 µM,> 100 µM,> 100 µM,> 100 µM,,,,,,,,,,
NC(=O)c1ccc(-c2c3ccccc3cc3c2ccc2ccccc23)cc1,,36.3 µM,82.4,19 µM,15.2 µM,> 100 µM,31 µM,52.3 µM,18.1 µM,62 µM,,6.51 µM,5.22,3.61 µM,1.32 µM,2.81 µM,5.11 µM,6.97 µM,2.81 µM,6.62 µM
c1ccc(CN(Cc2ccccn2)Cn2cccn2)nc1,> 100 µM,> 100 µM,,> 100 µM,> 100 µM,78.9 µM,> 100 µM,,> 100 µM,> 100 µM,,,,,,,,,,
N#CC(C#N)=C/C=C/c1cccc([N+](=O)[O-])c1,30 µM,1.36 µM,3.05,5.03 µM,3.2 µM,3.98 µM,10.3 µM,,12.9 µM,2.22 µM,3.23 µM,0.329 µM,1.68,1.08 µM,1.28 µM,1.39 µM,2.28 µM,,1.54 µM,0.927 µM
C[P+](C)(CC(F)(F)F)c1ccccc1,> 100 µM,> 100 µM,> 100,> 100 µM,> 100 µM,> 100 µM,> 100 µM,> 100 µM,,> 100 µM,,,,,,,,,,
COc1ccc2c(c1)[n+]([O-])c(-c1ccc(Cl)c(Cl)c1)c(N)[n+]2[O-],> 100 µM,> 100 µM,,> 100 µM,> 100 µM,> 100 µM,> 100 µM,> 100 µM,> 100 µM,> 100 µM,,,,,,,,,,
COCCOC(=O)CCn1cc(F)c(=O)[nH]c1=O,> 150 µg/mL,> 150 µg/mL,,> 150 µg/mL,> 150 µg/mL,> 150 µg/mL,> 150 µg/mL,> 150 µg/mL,> 150 µg/mL,> 150 µg/mL,7.8 µg/mL,32 µg/mL,,51 µg/mL,5.93 µg/mL,6.72 µg/mL,33.2 µg/mL,119 µg/mL,102 µg/mL,8.67 µg/mL
NC(=NC1C2CC3CC(C2)CC1C3)Nc1ccc(I)cc1 (configuration not stated),14.6 µM,23.4 µM,3.61,12.6 µM,,10.2 µM,6.75 µM,22.2 µM,17.8 µM,9.45 µM,3.82 µM,6.61 µM,1.77,3.42 µM,,2.88 µM,2.51 µM,5.41 µM,4.52 µM,2.92 µM
COc1cc([N+](=O)[O-])c2ncccc2c1O,> 100 µM,> 100 µM,,> 100 µM,7.02 µM,13.4 µM,6.77 µM,6.27 µM,67.1 µM,> 100 µM,3.06 µM,8.71 µM,,3.2 µM,2.18 µM,2.56 µM,2.29 µM,2.01 µM,9.79 µM,6.08 µM
CCn1c(-c2cc3ccccc3cc2OC(=O)c2ccccc2)n[nH]c1=S,> 50 µM,,,> 50 µM,> 50 µM,> 50 µM,> 50 µM,> 50 µM,> 50 µM,> 50 µM,35.9 µM,,,> 50 µM,42.3 µM,> 50 µM,27 µM,> 50 µM,> 50 µM,> 50 µM
OCC1CC2CC1C1(C2)OCCO1 (configuration not stated),> 100 µM,> 100 µM,,> 100 µM,> 100 µM,,> 100 µM,> 100 µM,> 100 µM,> 100 µM,,,,,,,,,,
COCCn1cc(-c2csc(-c3c[nH]c4ccc(F)cc34)n2)c2cccnc21,> 100 µM,> 100 µM,> 100,> 100 µM,> 100 µM,> 100 µM,> 100 µM,,> 100 µM,> 100 µM,> 100 µM,4.1 µM,4.54,5.14 µM,1.77 µM,2.35 µM,3.2 µM,,7.67 µM,5.27 µM
